The numbers were not newly measured in publication PMC4546427, “Stereoselective Regulation of P-gp Activity by Clausenamide Enantiomers in Caco-2, KB/KBv and Brain Microvessel Endothelial Cells” (PLoS ONE, 2015), which cites them from elsewhere.

Where two headings read alike, the source gives them in different places.

For this series, the system named is P-gp ATPase. The arrangement: method as in PMID 9300798. As to conditions: cited from earlier work.

Take `CC(=O)[C@H]1CC[C@H]2[C@@H]3CCC4=CC(=O)CC[C@]4(C)[C@H]3CC[C@]12C` [progesterone]: the “Effect on P-gp ATPase activity” value is, setting by setting: (concentrations above 25 μmol/L) “inhibited”; (low concentration 6.3 μmol/L) “stimulated”.
